Measurements as given in patent publication US20250034139A1, “AMINE COMPOUNDS HAVING ANTI-INFLAMMATORY, ANTIFUNGAL, ANTIPARASITIC, AND ANTICANCER ACTIVITY” (PHARMA CINQ, LLC, priority 2013, published 2025).
≈ marks a conversion by molar mass, not a printed value.

Tests used:
THP-1 cells [1] = test: Example D: LPS-triggered THP-1 cell death assay, acute/5-hour and chronic/48-hour; type: cell-based, Human; settings: for Viable cell percent change, Chronic/48-hour, Mean: 10 ng/ml LPS, 0.1 μM test compound; for activity relative to AC in the LPS-triggered THP-1 cell death assay, in words: 0.1 μM, 5-hour and 48-hour time points
Protocol: Compounds of the invention were tested at 0.1 μM versus AC in the LPS-triggered THP-1 cell death assay. Both acute/5-hour and chronic/48-hour phases of cell death were assessed. Compounds were screened in batches with DMSO as the negative control and AC as the high activity control.

S. cerevisiae = test: Example I: Saccharomyces cerevisiae growth inhibition (OD 600 nm); type: cell-based; settings: Saccharomyces cerevisiae, 18 hour incubation at 30° C., OD 600 nm, XLfit; for IC50: read-out: IC50, uM (50% inhibition of fungal growth); for MIC: read-out: MIC, uM (99% of inhibition of fungal growth)
Protocol: An overnight culture of S. cerevisiae was dilution in YPD broth to concentration of 40,000/ml and 150 μl/well was plated in 96 well plates. Compounds were then added to each well with concentration ranged from 4 to 50 μM as final concentration. The plates were inoculated at 30° C. overnight with shaking at 220 rpm and absorbance at 600 nm was read after 18 hour incubation.
• 1. One days prior to the inoculum preparation, pick a single colony of S. cerevisiae from the Sabouraud Dextrose Agar plate using the inoculum loop and inoculate into a 50 mL tube containing 10 ml of YPD growth medium • 2. Incubate at 30° C. with shaking at 220 rpm for 24 hours with loosen lid to allow air in and facilitates growth. • 3. Examine an aliquot of the culture under a microscope for yeast cell morphology and lack of bacterial contamination. • 4. Dilute the overnight culture with YPD medium at 1:30 dilution (70 ul to 2.1 ml) and count the number of cells as 4,230,000/ml. • 5. Mix 620 μl of 1:30 dilution and 64.4 ml YPD to make final concentration of 40,000/ml cells • 6. Plated 144 μl/well in four 96-well plates.
• 1. From 10 mM DMSO stock solutions, make serial dilutions of compounds to 0.1, 0.2, 0.3, 0.63 and 1.25 mM solutions • 2. Add 6 μl each of diluted compound solutions per well in duplicates. The final concentrations were 0, 4, 8, 12, 25 and 50 micromolar. • 3. Incubated all plates at 30 C for overnight (˜18 hours) with 220 rpm shaking. • 4. Read absorbance at OD600 for each plate on Spectra Max Plus plate reader. • 5. Calculate the % inhibition of each compound against the DMSO treated cell and plotted.

Trichophyton rubrum = test: Example J: Trichophyton rubrum growth inhibition, scoring by eye; type: cell-based; settings: Trichophyton rubrum, 144 h; 6 days at 30° C., tested 6 to 40 μM; read-out: MIC, μM (maximum inhibition concentration, scoring by eye)
Protocol: Trichophyton grown on two agar plates were collected by scraping into 10 ml saline and filtered through 8 μm filters. […] This experiment included some active compounds from previous experiment and added several untested compounds. […] Following table listed the maximum inhibition concentration (MIC) based on scoring by eye. Scrape frozen Trichophyton culture from ATCC vial and suspended in 100 μl PDB, and then plate on a PDA plate. Incubate plate at 30 C for 4 days. The plate was covered almost full. […] Take OD of collected solution at 520 nm and 600 nm: […] Part-II: […] Add 6 μl each of diluted compound solutions per well in triplicates. […] Wrap the plates with […] incubate all plates at 30° C. for 6 days. • Take picture of the plates on KODAK imager with 17 captures of 1.5 sec/capture for total of 25.5 second exposure.

[2] = system: 4T1 murine breast cancer cells; test: Example S: in vitro anticancer screen, 4T1 cells, Wst1; type: cell-based, mouse; settings: Mus musculus, 4T1, 18 h, 18 hr, Wst1; for viability at 1 µM: read-out: 4T1 1 μM, percent of cancer cell survival relative to vehicle treated cells; for viability at 5 µM: read-out: 4T1 5 μM, percent of cancer cell survival relative to vehicle treated cells
Summary of the method: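 4T1 cells seeded at 1×10^4/well were exposed to compound at 1 μM or 5 μM for 18 hr after plating. Wst1 tetrazolium dye was then added for about 2 hr and absorbance read at 450 nm (reference 630 nm). Values are percent survival relative to vehicle-treated cells.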

[3] = system: PC3 human prostate cancer cells; test: Example S: in vitro anticancer screen, PC-3 cells, Wst1; type: cell-based; settings: Homo sapiens, PC-3, approximately 20 hours, Wst1, read-out: PC-3, percent of cancer cell survival relative to vehicle treated cells
Summary of the method: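 PC-3 cells, 2×10^4 cells/well, exposed ~20 h to vehicle or compound at 0.4, 0.5 or 2.5 μM as specified per compound. Wst1 dye added for 2 h; absorbance 450 nm (reference 630 nm), triplicates. Values are percent cell survival versus vehicle-treated cells.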

[4] = system: PC-3 prostate cancer cells; test: Example T: sensitisation of PC-3 cells to doxorubicin, oxaliplatin, paclitaxel or vincristine, Wst1; type: cell-based, human; settings: PC-3 cells, 72 hours; for viability at 0.4 µM: compound 0.4 μM alone; for Doxorubicin 3.5 μM: percent cell survival / Oxaliplatin 100 μM: percent cell survival / Paclitaxel 50 μM: percent cell survival / Vincristine 100 nM: percent cell survival: chemotherapy agent alone normalized to 100%
[5] = system: Candida albicans strain 3153; test: Example H: Candida albicans growth inhibition (OD 600 nm); type: cell-based; settings: for MIC: Candida albicans, 3153, 24 hrs at 30° C., YPD, XLfit, read-out: MIC (uM) (99% of inhibition of fungal growth); for IC50: Candida albicans, 3153, read-out: IC50 (uM) (50% inhibition of fungal growth), 24 hrs at 30° C., YPD, XLfit
Summary of the method: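 Growth inhibition computed as % versus DMSO control from OD600 after ~24 h at 30° C. Inoculum: washed overnight YPD culture of strain 3153 at 3.5×10^4 CFU/ml in YPD; final compound concentrations 0, 5, 10, 16, 22, 30, 40 μM, duplicate wells.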

THP-1 cells [6] = test: Example C: compound screen, viable THP-1 cell count after 5 hours +/- LPS; type: cell-based, Human; settings: for ability to inactivate pro-inflammatory THP-1 cells, in words (relative to benchmark AC): LPS-treated THP-1 cells
Source text: Background: THP-1 is a human acute myeloid leukemia (AML) cell line that can be induced into a macrophage-like cell with vitamin-D3 (vit-D3). In the macrophage, LPS (lipopolysaccharide; endotoxin) stimulation of toll-like receptor 4 (TLR-4) leads to NF-κB activation and secretion of inflammatory cytokines but also the priming of programmed death pathways through RIP and Caspase 8. The balance of this complex regulatory network is dependent on highly specific kinases, enzymes that require ATP. Disruption of either cytosolic pH or ATP availability/energy level uncouples this control network and the can macrophage shift away from production of inflammatory cytokines towards a programmed death event, which has the net effect of limiting inflammatory damage.

[7] = Homo sapiens, Wst1, vehicle = 100, read-out: No Chemo: percent cell survival
[8] = compound 0.4 μM + doxorubicin 3.5 μM
[9] = compound 0.4 μM + oxaliplatin 100 μM
[10] = compound 0.4 μM + paclitaxel 50 μM
[11] = compound 0.4 μM + vincristine 100 nM

| Structure (SMILES) | IC50 (S. cerevisiae) [µM] | MIC (S. cerevisiae) [µM] | MIC (Trichophyton rubrum) [µM] | MIC [5] [µM] | IC50 [5] [µM] | Viable cell percent change, Chronic/48-hour, Mean (THP-1 cells [1]) [%] | activity relative to AC in the LPS-triggered THP-1 cell death assay, in words (THP-1 cells [1]) | viability at 1 µM [2] [%] | viability at 5 µM [2] [%] | viability at 0.4 µM [3] [%] | viability at 0.4 µM [4, 7] [%] | Doxorubicin 3.5 μM: percent cell survival [4, 8] [%] | Oxaliplatin 100 μM: percent cell survival [4, 9] [%] | Paclitaxel 50 μM: percent cell survival [4, 10] [%] | Vincristine 100 nM: percent cell survival [4, 11] [%] | further results |
| --- | --- | --- | --- | --- | --- | --- | --- | --- | --- | --- | --- | --- | --- | --- | --- | --- |
| CCCCCCOC(=O)c1ccc(Nc2ccnc3ccccc23)cc1 [AP, Hexyl 4-(quinolin-4-ylamino)benzoate] | 26.3 | 46.5 (≈ 16.2 µg/mL) | ~40 (≈ 13.9 µg/mL) | 42 (≈ 14.6 µg/mL) | 25 | 37.38 | – | 110 | 246 | – | – | – | – | – | – | – |
| CCCCCCNC(=O)c1ccc(Nc2ccnc3ccccc23)cc1 [AQ, N-Hexyl-4-(quinolin-4-ylamino)benzamide] | – | – | > 40 | – | 41.2 | 24.71 | – | 94.8 | 92.7 | – | – | – | – | – | – | – |
| CCCCCCOc1ccc(Nc2ccnc3ccccc23)c(F)c1 [BL, N-[2-Fluoro-4-(hexyloxy)phenyl]quinolin-4-amine] | – | – | > 40 | 44.8 (≈ 15.2 µg/mL) | 33.5 | 32.33 | – | – | – | 106 | 106 | 135.5 | 120 | 141.4 | 111.2 | – |
| COCCCCCCCCNc1ccnc2ccccc12 [CJ, N-(8-Methoxyoctyl)quinolin-4-amine] | – | – | – | – | – | 15.44 | more active than AC at the chronic/48-hour time point | 22.6 | 24.1 | 53.7 | 53.7 | 18.9 | 19.7 | 51.7 | 16.9 | Reduction in viable THP-1 cell count (percent change) from 0 hours, Mean ± SE (THP-1 cells [6]; Compound (0.1 μM), No LPS): −5.53 ± 3.89%; Reduction in viable THP-1 cell count (percent change) from 0 hours, Mean ± SE (THP-1 cells [6]; Compound (0.1 μM), Plus LPS): −30.15 ± 4.41%; Reduction in viable THP-1 cell count (percent change) from 0 hours, Mean ± SE (THP-1 cells [6]; Compound (1.0 μM), No LPS): −6.99 ± 1.55%; Reduction in viable THP-1 cell count (percent change) from 0 hours, Mean ± SE (THP-1 cells [6]; Compound (1.0 μM), Plus LPS): −41.62 ± 1.80%; ability to inactivate pro-inflammatory THP-1 cells, in words (relative to benchmark AC) (THP-1 cells [6]): higher activity than the active benchmark compound AC |
| COc1ccc(OCCCCCCNc2ccnc3ccccc23)cc1 [Compound CX, N-[6-(4-Methoxyphenoxy)hexyl]quinolin-4-amine] | – | – | – | – | – | 8.50 | more active than AC at the chronic/48-hour time point | 25.1 | 20.7 | 45.9 | 45.9 | 21.7 | 22.2 | 48.2 | 38.1 | Reduction in viable THP-1 cell count (percent change) from 0 hours, Mean ± SE (THP-1 cells [6]; Compound (0.1 μM), No LPS): −8.00 ± 1.41%; Reduction in viable THP-1 cell count (percent change) from 0 hours, Mean ± SE (THP-1 cells [6]; Compound (0.1 μM), Plus LPS): −38.09 ± 0.41%; Reduction in viable THP-1 cell count (percent change) from 0 hours, Mean ± SE (THP-1 cells [6]; Compound (1.0 μM), No LPS): −9.20 ± 3.09%; Reduction in viable THP-1 cell count (percent change) from 0 hours, Mean ± SE (THP-1 cells [6]; Compound (1.0 μM), Plus LPS): −49.57 ± 2.44%; ability to inactivate pro-inflammatory THP-1 cells, in words (relative to benchmark AC) (THP-1 cells [6]): higher activity than the active benchmark compound AC |

Continued, in another order:

| IC50 (S. cerevisiae) [µM] | MIC (S. cerevisiae) [µM] | MIC (Trichophyton rubrum) [µM] | MIC [5] [µM] | IC50 [5] [µM] | Structure (SMILES) | Viable cell percent change, Chronic/48-hour, Mean (THP-1 cells [1]) [%] | activity relative to AC in the LPS-triggered THP-1 cell death assay, in words (THP-1 cells [1]) | viability at 1 µM [2] [%] | viability at 5 µM [2] [%] | viability at 0.4 µM [3] [%] | viability at 0.4 µM [4, 7] [%] | Doxorubicin 3.5 μM: percent cell survival [4, 8] [%] | Oxaliplatin 100 μM: percent cell survival [4, 9] [%] | Paclitaxel 50 μM: percent cell survival [4, 10] [%] | Vincristine 100 nM: percent cell survival [4, 11] [%] | further results |
| --- | --- | --- | --- | --- | --- | --- | --- | --- | --- | --- | --- | --- | --- | --- | --- | --- |
| 19.1 | 24.3 (≈ 8.45 µg/mL) | 18 (≈ 6.27 µg/mL) | – | – | c1ccc(OCCCCCCCCNc2ccnc3ccccc23)cc1 [AN, N-(8-Phenoxyoctyl)quinolin-4-amine] | 31.66 | equivalent activity to AC at both the 5-hour and 48-hour time points | 26.6 | 50.3 | 75.9 | 75.9 | 28.2 | 24.7 | 45.8 | 67.3 | – |
| – | – | > 40 | 84.9 (≈ 25.9 µg/mL) | 34.7 | CCCCCCc1ccc(Nc2ccnc3ccccc23)cc1 [AO, N-(4-Hexylphenyl)quinolin-4-amine] | 25.19 | – | 28.9 | 18.6 | 35 | 35 | 80.7 | 91 | 93.1 | 91.1 | – |
| 35.6 | 50.8 (≈ 14.3 µg/mL) | 12 (≈ 3.38 µg/mL) | 90.6 (≈ 25.5 µg/mL) | 28.8 | CCCCCCCCn1cnc2cnc3ccccc3c21 [BP, 1-Octyl-1H-imidazo[4,5-c]quinoline] | – | – | 33.6 | 23.3 | – | – | – | – | – | – | viability at 0.5 µM ([3]; 0.5 μM): 50.5%; viability at 0.5 µM ([4]; Homo sapiens, compound 0.5 μM alone, Wst1, vehicle = 100, read-out: No Chemo: percent cell survival): 50.5%; Doxorubicin 3.5 μM: percent cell survival ([4]; compound 0.5 μM + doxorubicin 3.5 μM): 79.1%; Oxaliplatin 100 μM: percent cell survival ([4]; compound 0.5 μM + oxaliplatin 100 μM): 113.6%; Paclitaxel 50 μM: percent cell survival ([4]; compound 0.5 μM + paclitaxel 50 μM): 95.1%; Vincristine 100 nM: percent cell survival ([4]; compound 0.5 μM + vincristine 100 nM): 93% |
